Experimental data as given in patent publication US7964531B2, “3-phenoxy-4-pyridazinol derivatives and herbicidal composition containing the same” (Mitsui Chemicals Agro, Inc., priority 2001, dated 2011).
Where a name gives a salt, the structure may show the parent alone.

melting point	SMILES
230 to 232 °C	Oc1cc(Cl)nnc1Oc1c(Br)cccc1C1CC1 [Compound No. 762, 3-(2-Bromo-6-cyclopropylphenoxy)-6-chloro-4-pyridazinol]
178 to 179 °C	CC(C)Oc1ccccc1Oc1nnc(Cl)cc1O [Compound No. 387, 6-Chloro-3-(2-isopropoxyphenoxy)-4-pyridazinol]
174 to 179 °C	CCOc1cccc(C2CC2)c1Oc1nnc(Cl)cc1O [Compound No. 965, 6-Chloro-3-(2-cyclopropyl-6-ethoxyphenoxy)-4-pyridazinol]
142 to 144 °C	CCc1cc(I)cc(I)c1Oc1nnc(Cl)cc1O [Compound No. 1120, 6-Chloro-3-(2-ethyl-4,6-diiodophenoxy)-4-pyridazinol]
188 to 195 °C	CCc1c(C)cc(C)c(C)c1Oc1nnc(Cl)cc1O [Compound No. 2601, 6-Chloro-3-(2-ethyl-3,5,6-trimethylphenoxy)-4-pyridazinol]
86 to 87 °C	Cc1ccccc1Oc1nnc(-c2cccs2)cc1O [Compound No. 2478, 3-(2-Methylphenoxy)-6-(2-thienyl)-4-pyridazinol]
213 to 215 °C	N#CC1(c2ccccc2Oc2nnc(Cl)cc2O)CCC1 [Compound No. 287, 1-{2-[(6-Chloro-4-hydroxy-3-pyridazinyl)oxy]phenyl}cyclobutanecarbonitrile]
173 to 174 °C	CCOCc1ccccc1Oc1nnc(Cl)cc1O [Compound No. 325, 6-Chloro-3-[2-(ethoxymethyl)phenoxy]-4-pyridazinol]
126 to 127 °C	Cc1ccccc1Oc1nnc(Cl)cc1OC(=O)N1CCCC1 [Compound No. 1924, 6-Chloro-3-(2-methylphenoxy)-4-pyridazinyl 1-pyrrolidinecarboxylate]
200 to 203 °C	Cc1cc(C)c(C2CC2)c(Oc2nnc(Cl)cc2O)c1 [Compound No. 1023, 6-Chloro-3-(2-cyclopropyl-3,5-dimethylphenoxy)-4-pyridazinol]
135 to 136 °C	Cc1cccc(C(C)(C)C)c1Oc1nnc(Cl)cc1O [Compound No. 805, 3-(2-tert-Butyl-6-methylphenoxy)-6-chloro-4-pyridazinol]
145 to 155 °C	Oc1cc(Cl)nnc1Oc1cccc2c1CC2 [Compound No. 505, 3-(Bicyclo[4.2.0]octa-1,3,5-trien-2-yloxy)-6-chloro-4-pyridazinol]
105 to 107 °C	Cc1cccc(C2CC2)c1Oc1nnc(Cl)cc1OC(=O)c1cc2ccccc2s1 [Compound No. 3504, 6-Chloro-3-(2-cyclopropyl-6-methylphenoxy)-4-pyridazinyl 1-benzothiophene-2-carboxylate]
197 to 199 °C	C[Si](C)(C)c1ccc(Oc2nnc(Cl)cc2O)cc1
187 to 191 °C	COc1ccc(F)cc1Oc1nnc(Cl)cc1O [Compound No. 700, 6-Chloro-3-(5-fluoro-2-methoxyphenoxy)-4-pyridazinol]
229 to 234 °C	Cc1ccc(C2CC2)c(Oc2nnc(Cl)cc2O)c1C [Compound No. 1061, 6-Chloro-3-(6-cyclopropyl-2,3-dimethylphenoxy)-4-pyridazinol]
254 to 256 °C	Cc1cc(C)c(Oc2nnc(Cl)cc2O)c(Br)c1 [Compound No. 1119, 3-(2-Bromo-4,6-dimethylphenoxy)-6-chloro-4-pyridazinol]
123 to 126 °C	COCc1c(Cl)nnc(Oc2ccccc2C)c1O [Compound No. 2378, 6-Chloro-5-(methoxymethyl)-3-(2-methylphenoxy)-4-pyridazinol]
70.5 to 71.5 °C	CCCS(=O)(=O)Oc1cc(Cl)nnc1Oc1c(C)cccc1C1CC1 [Compound No. 2051, 6-Chloro-3-(2-cyclopropyl-6-methylphenoxy)-4-pyridazinyl 1-propanesulfonate]
80 to 83 °C	Cc1ccc(C)c(Oc2nnc(Cl)cc2O)c1 [Compound No. 621, 6-Chloro-3-(2,5-dimethylphenoxy)-4-pyridazinol]
63 to 64.5 °C	CON(C)C(=O)Oc1cc(Cl)nnc1Oc1c(C)cccc1C1CC1
178 to 182 °C	Cc1cc(C)cc(Oc2nnc(Cl)cc2O)c1 [Compound No. 998, 6-Chloro-3-(3,5-dimethylphenoxy)-4-pyridazinol]
165 to 167 °C	CON=C(C)c1ccccc1Oc1nnc(Cl)cc1O [Compound No. 334, 1-{2-[(6-Chloro-4-hydroxy-3-pyridazinyl)oxy]phenyl}ethanone O-methyloxime]
238 to 245 °C	CC1COc2cccc(Oc3nnc(Cl)cc3O)c21 (centres unmarked) [Compound No. 529, 6-Chloro-3-[(3-methyl-2,3-dihydro-1-benzofuran-4-yl)oxy]-4-pyridazinol]
85 to 87 °C	Cc1ccc(S(=O)(=O)Oc2cc(Cl)nnc2Oc2c(C)cccc2C2CC2)cc1 [Compound No. 2265, 6-Chloro-3-(2-cyclopropyl-6-methylphenoxy)-4-pyridazinyl 4-methylbenzenesulfonate]

melting point	SMILES
218 to 220 °C	Oc1cc(Cl)nnc1Oc1c(C2CC2)ccc2c1CCC2 [Compound No. 1091, 6-Chloro-3-[(5-cyclopropyl-2,3-dihydro-1H-inden-4-yl)oxy]-4-pyridazinol]
187 to 195 °C	Oc1cc(Cl)nnc1Oc1cccc(Cl)c1F [Compound No. 438, 6-Chloro-3-(3-chloro-2-fluorophenoxy)-4-pyridazinol]
250 to 252 °C	Cc1cccc(I)c1Oc1nnc(Cl)cc1O [Compound No. 780, 6-Chloro-3-(2-iodo-6-methylphenoxy)-4-pyridazinol]
72 to 73 °C	CCCS(=O)(=O)Oc1cc(Cl)nnc1Oc1ccccc1C [Compound No. 2038, 6-Chloro-3-(2-methylphenoxy)-4-pyridazinyl 1-propanesulfonate]
223 to 224 °C	Cc1cc(C)c(C)c(Oc2nnc(Cl)cc2O)c1 [Compound No. 1016, 6-Chloro-3-(2,3,5-trimethylphenoxy)-4-pyridazinol]
190 to 192 °C	N#C/C=C/c1ccccc1Oc1nnc(Cl)cc1O [Compound No. 306, (2E)-3-{2-[(6-Chloro-4-hydroxy-3-pyridazinyl)oxy]phenyl}acrylonitrile]
84 to 87 °C	Cc1cccc(C2CC2)c1Oc1nnc(Cl)cc1OC(=O)C(C)(C)C [Compound No. 1207, 6-Chloro-3-(2-cyclopropyl-6-methylphenoxy)-4-pyridazinyl pivalate]
188 to 191 °C	COC(=O)c1ccccc1Oc1nnc(Cl)cc1O [Compound No. 339, Methyl 2-[(6-chloro-4-hydroxy-3-pyridazinyl)oxy]benzoate]
211 to 212 °C	CC(C)c1ccc(C2CC2)c(Oc2nnc(Cl)cc2O)c1 [Compound No. 664, 6-Chloro-3-(2-cyclopropyl-5-isopropylphenoxy)-4-pyridazinol]
191 to 193 °C	CCCc1cccc(CCC)c1Oc1nnc(Cl)cc1O [Compound No. 890, 6-Chloro-3-(2,6-dipropylphenoxy)-4-pyridazinol]
125.5 to 126.5 °C	Cc1ccc(S(=O)(=O)Oc2ccccc2Oc2nnc(Cl)cc2OS(=O)(=O)c2ccc(C)cc2)cc1 (as salt: benzene sulfonate) [Compound No. 2233, 2-[(6-Chloro-4-{[(4-methylphenyl)sulfonyl]oxy}-3-pyridazinyl)oxy]phenyl 4-methylbenzene sulfonate]
208 to 212 °C	Oc1cc(Cl)nnc1Oc1ccccc1Cl [Compound No. 125, 6-Chloro-3-(2-chlorophenoxy)-4-pyridazinol]
217 to 219 °C	O=[N+]([O-])c1cccc(Oc2nnc(Cl)cc2O)c1 [Compound No. 424, 6-Chloro-3-(3-nitrophenoxy)-4-pyridazinol]
193 to 195 °C	Cc1ccc(C(C)C)c(Oc2nnc(Cl)cc2O)c1 [Compound No. 640, 6-Chloro-3-(2-isopropyl-5-methylphenoxy)-4-pyridazinol]
240 to 241 °C	Cc1cccc(Oc2nnc(Cl)cc2O)c1C [Compound No. 456, 6-Chloro-3-(2,3-dimethylphenoxy)-4-pyridazinol]
211 to 212 °C	COCc1ccccc1Oc1nnc(Cl)cc1O [Compound No. 324, 6-Chloro-3-[2-(methoxymethyl)phenoxy]-4-pyridazinol]
128 to 130 °C	Cc1cccc(C2CC2)c1Oc1nnc(Cl)cc1OC(=O)c1cc(Cl)ccc1Cl [Compound No. 3100, 6-Chloro-3-(2-cyclopropyl-6-methylphenoxy)-4-pyridazinyl 2,5-dichlorobenzoate]
169 to 171 °C	Cc1ccccc1Oc1nnccc1O [Compound No. 5, 3-(2-Methylphenoxy)-4-pyridazinol]
278 to 283 °C	Cc1cc(C)c(C)c(Oc2nnc(Cl)cc2O)c1C [Compound No. 1125, 6-Chloro-3-(2,3,5,6-tetramethylphenoxy)-4-pyridazinol]
66 to 67 °C	COc1cccc(Oc2nnc(Cl)cc2OC(=O)c2ccccc2C)c1 [Compound No. 1458, 6-Chloro-3-(3-methoxyphenoxy)-4-pyridazinyl 2-methylbenzoate]
175 to 180 °C	Oc1cc(Cl)nnc1Oc1c(C2CC2)ccc2ccoc12 [Compound No. 1102, 6-Chloro-3-[(6-cyclopropyl-1-benzofuran-7-yl)oxy]-4-pyridazinol]
229 to 231 °C	Oc1cc(Cl)nnc1Oc1ccccc1C1CC1 [Compound No. 139, 6-Chloro-3-(2-cyclopropylphenoxy)-4-pyridazinol]
194 to 195 °C	Oc1cc(Cl)nnc1Oc1cc(Cl)ccc1C1CC1 [Compound No. 659, 6-Chloro-3-(5-chloro-2-cyclopropylphenoxy)-4-pyridazinol]
80 to 81 °C	Cc1ccc(S(=O)(=O)Oc2cc(Cl)nnc2Oc2ccc(C)cc2C)cc1 [Compound No. 2247, 6-Chloro-3-(2,4-dimethylphenoxy)-4-pyridazinyl 4-methylbenzenesulfonate]

SMILES	melting point
O=S(=O)(Oc1cc(Cl)nnc1Oc1ccccc1C1CC1)C(F)(F)F (as salt: methanesulfonate) [Compound No. 2081, 6-Chloro-3-(2-cyclopropylphenoxy)-4-pyridazinyl trifluoromethanesulfonate]	54 to 61 °C
